Source: ChEMBL document CHEMBL1157539, “Thousands of chemical starting points for antimalarial lead identification” (Nature, 2010)

The compounds below were run on Plasmodium falciparum (assay: GSK_TCMDC: Inhibition of Plasmodium falciparum 3D7 in whole erythrocytes, using parasite LDH activity as an index of growth.). Conditions: Plasmodium falciparum, 3D7.
Assay type: functional, organism-based

SMILES	XC50
N=C(Nc1nc(-c2ccccn2)cc2ccccc12)c1cccc(Cl)c1	309 nM
CCCc1cc2c3c(N)nc(N)nc3ccc2n1CC	47.7 nM
Cc1cc2c3c(N)nc(N)nc3ccc2n1C	90.1 nM
COc1ccc2c(C)cc(NCCCN(C)C)nc2c1	1100 nM
Cc1ccc(C2=NNC3(S2)C(=O)N(C)c2ccccc23)cc1 (stereo not drawn)	1020 nM
O=C(N[C@H]1CCN(CCc2ccc(O[C@H]3CCNC3)c(F)c2)C1)c1ccc(Cl)c(Cl)c1	1190 nM
CCc1ccccc1-c1csc(C(=O)NCC2CCN(Cc3ccc(C(C)(C)C)cc3)C2)c1 (stereo not drawn)	1150 nM
COc1ccccc1C(=O)C1CCCN(C(=O)c2ccccc2C(F)(F)F)C1 (stereo not drawn)	602 nM
CN1CCN(CCCNCc2cccc(-c3ccc(CNCCc4ccccc4)cc3)c2)CC1	781 nM
N#Cc1c(F)cc(N2CCC(NCC[C@H](N)Cc3ccc(F)c(F)c3)CC2)cc1F	857 nM
COc1ccc(C2C(C(=O)Nc3ccc(C)c(F)c3)c3cc(OC)c(OC)cc3C(=O)N2C)cc1 (stereo not drawn)	956 nM
CC(C)NC[C@@H](O)[C@H](Cc1ccccc1)NC(=O)c1cc2c3c(c1)c(C(C)C)cn3CCS(=O)(=O)N2C	179 nM
CCNC(=O)Nc1ccc(N(C)c2ccnc(NC3CC3)n2)cc1	803 nM
C=C1N(C)c2cc([N+](=O)[O-])c(N)cc2C1(C)C	486 nM
Nc1nc(N)c2c(ccc3c2cnn3S(=O)(=O)N2CCCC2)n1	18.6 nM
COc1cccc(NC(=O)c2nc(N3CCN(c4ccncc4)CC3)ccc2Cl)c1	924 nM
COc1ccc2nccc([C@@H](O)CN3CCC(NCCOc4cc(C(F)(F)F)ccc4F)CC3)c2c1	108 nM
Nc1nc(N)c2cc(Cc3ccc([N+](=O)[O-])cc3)cnc2n1	943 nM
O=C(/C=C/c1ccc(Cl)c(Cl)c1)N1CCC(C(O)CN2CCC(c3c[nH]c4ccccc34)CC2)CC1 (stereo not drawn)	859 nM
COc1c(C2CCN(CCN3CCC(CNC(=O)c4ccc(-c5ccc(C#N)cc5)cc4)CC3)CC2)ccc2c1CCCC2	455 nM
COc1ccc2ncc(F)c(CCN3CCC(NCc4cc(Br)c5c(c4)OCCO5)CC3)c2n1	190 nM
CCCCCCOc1ccccc1C(=O)NCCOc1ccc(Cl)cc1	1210 nM
COc1ccc(CNC(=O)Nc2cc3cc(-c4ccc(CN5CCCC5)cc4)ccc3n3c(C)nnc23)cc1	654 nM
Cc1c(O)cccc1Nc1ccnc2ccc(C(F)(F)F)cc12	31.1 nM
CC1(C)NC(N)=NC(=N)N1OCCCc1ccc(Cl)cc1Cl	3.2 nM

SMILES	XC50
CC(C)NCc1ccc(-c2cccc(-c3nc4ccccc4[nH]3)c2)cc1	231 nM
C(=Cc1ccccc1)C=NN=c1cc[nH]c2ccccc12	725 nM
O=S(=O)(NCCN1CCCC1)c1ccc(-c2ccc(CNCc3ccc(F)cc3)cc2)s1	838 nM
O=C(c1ccc(-c2ccc(-c3nc4cc(F)ccc4[nH]3)cc2)cc1)N1CCCCC1CN1CCC(O)C1 (stereo not drawn)	368 nM
Cc1cc(N[C@@H](Cc2ccccc2)C(=O)NCCc2ccccc2)nc(NCCOc2ccccc2)n1	1000 nM
COc1ccc(NC(=O)N2CCCN(CCCCCNC(=O)/C=C/c3ccc(Cl)cc3)CC2)cc1Cl	814 nM
CCC(C)(C)c1ccc(S(=O)(=O)Nc2ccc(Cl)c(OCCN3CCCCC3)c2)cc1	1110 nM
NCc1ccc(Nc2nccc(Nc3ccc(-c4ccccc4)cc3)n2)cc1	892 nM
C/C=C1\CN2CC[C@H]1C[C@H]2[C@H](O)c1ccnc2ccc(OC)cc12	318 nM
CN(C)C(CNC(=O)c1cc(-c2ccncc2)c(-c2cc3ccccc3[nH]2)o1)c1ccccc1 (stereo not drawn)	841 nM
O=C(CC(=O)C(F)(F)F)c1ccccc1[N+](=O)[O-]	3.2 nM
O=C(Oc1ccc(Cl)cc1C(=O)Nc1ccc([N+](=O)[O-])cc1Cl)c1ccccc1	912 nM
Cc1cccc2nc(-c3ccc(-c4cccc(CNCc5cnn(-c6ccccc6)n5)c4)s3)[nH]c12	551 nM
CC(C)c1sc(N2CCN(C)CC2)nc1C(=O)NCCc1cccc(Cl)c1	1490 nM
O=C1CCCN1CCCNCc1ccc(-c2ccc(-c3nc4cc(C(F)(F)F)ccc4[nH]3)cc2)cc1	583 nM
Cc1nc(N)nc(N)c1OCc1cccc2ccccc12	72.7 nM
Cn1c2c(c3ccccc31)CN(CCC1(c3ccc(Cl)c(Cl)c3)CN(C(=O)Cc3ccccc3)CCO1)CC2 (stereo not drawn)	358 nM
Cc1[nH]c(C)c(-c2ccc(-c3ccc4c(c3)OCO4)nc2)c(=O)c1Br	187 nM
CC(C)C[C@H](NC(=O)c1cc2ccccc2s1)C(=O)N[C@H]1CCN(Cc2ccc(OC[C@@H]3CCCN3C)c(Cl)c2)C1	853 nM
CC(C)C(=O)n1ncc2c3c(N)nc(N)nc3ccc21	1030 nM
COc1ccc(-c2nc(NC(=O)Cc3ccc4c(c3)OCCO4)sc2C)cc1	245 nM
COc1ccc2ncc(F)c(CCN3CC[C@@H](CNCc4nc5c(cc4C)SCC(=O)N5)C3)c2n1	1150 nM
N#Cc1cc(C(=O)c2cc(Br)ccc2O)cn(C2CCCCC2)c1=O	910 nM
Nc1cc(-c2cccc(Cl)c2)nn1-c1ccnc2cc(Cl)ccc12	753 nM
Cc1cc(N(C)C2CCN(C)C2)nc(Nc2ccc(Cl)cc2)n1 (stereo not drawn)	336 nM

SMILES	XC50
CC[C@H](C)CNC(=O)c1cccc(-c2ccc(CN3CCC(N4CCCC4)CC3)cc2)n1	788 nM
CCNC(=O)N1CCN(c2nc(-c3ccccc3)nc(COC)c2Cc2ccc(C)cc2)CC1	989 nM
CC[C@H](C)CNC(=O)c1cccc(-c2cccc(CN3CCC(N4CCCC4)CC3)c2)n1	706 nM
Cn1nc(-c2cccc(CNC3CCc4ccccc43)c2)c2cnc(NC3CCCC3)nc21 (stereo not drawn)	857 nM
NC1=NC(c2ccccc2)(c2ccccc2)C(=O)N1CCOc1ccccc1	844 nM
CC(Cc1ccc(OCCCCOc2ccccc2)cc1)NCCC1CCCN1C (stereo not drawn)	39.7 nM
Cc1nc(-c2ccc(-c3ccc(C(=O)Nc4ccc(C(C)C)c(OCCN(C)C)c4)cc3)c(C)c2)no1	870 nM
O=C(NC1CCN(c2ccnc3cc(Cl)ccc23)C1)c1ccc(F)cc1F (stereo not drawn)	372 nM
CC(C)NC(=O)c1cccc(-c2cccc(OCCN3CCSCC3c3ccccc3)c2)c1 (stereo not drawn)	1010 nM
O=C(NCc1ccccc1)Nc1ccc(-c2ccc(-c3nc4cc(C(F)(F)F)ccc4[nH]3)cc2)cc1	671 nM
CCNc1cc(C(=O)N[C@@H](Cc2ccccc2)[C@H](O)CNC23CC4CC(CC(C4)C2)C3)cc(N2CCCCS2(=O)=O)c1	219 nM
Cn1c(Cc2ccccc2)nnc1Sc1ccc(C#N)c([N+](=O)[O-])c1	907 nM
COc1ccc(Nc2cc(C)nc(Nc3ccc(NC(C)=O)cc3)n2)cc1	865 nM
COc1ccc(N2C(=O)C3C(C2=O)C2(C)c4ccccc4C3(C)c3ccccc32)c([N+](=O)[O-])c1 (stereo not drawn)	720 nM
CCCC(CNCc1cccc(C)c1)CNc1cc(=O)c2ccccc2[nH]1 (stereo not drawn)	631 nM
COc1cccc(CNCC(C)(C)c2nc(-c3ccc(Cl)c(O)c3)c(-c3ccncc3)[nH]2)c1	693 nM
O=C(Nc1ccc(C(F)(F)F)cc1)NC1CCN(c2ccnc3cc(Cl)ccc23)CC1	178 nM
CN1C(=CC(=O)NC(=O)c2ccccc2)C(C)(C)c2ccccc21	637 nM
Nc1cc(-c2ccc3c(N)nccc3c2)ccc1Cl	1540 nM
CN1CCN(CCCN(Cc2csc(-c3ccc(CNCc4ccccc4)cc3)n2)S(=O)(=O)c2ccc(F)cc2)CC1	858 nM
CC(C)NC(=O)Cn1cc(C2CCN(CC3CCN(C(=O)/C=C/c4ccc(Cl)c(Cl)c4)CC3)CC2)c2ccccc21	1030 nM
COc1ccc(NC(=O)[C@H](Cc2ccccc2)Nc2cc(C)nc(NCc3ccccc3C)n2)cc1	794 nM
COc1ccc(CNC2CCN(C)CC2)cc1-c1ccc(S(=O)(=O)NC2CCC2)cc1	882 nM
O=C(Nc1cccc(Cl)c1Cl)N[C@H]1CCN(CCCCCNC(=O)C2CC2c2ccc(Cl)c(Cl)c2)C1 (stereo partly drawn)	1280 nM
CCN(CC)/C(=N/C(=N)Nc1ccc(Br)cc1)NCCCCCCN/C(=N\C(=N)Nc1ccc(Br)cc1)N(CC)CC	384 nM

SMILES	XC50
CC(CN1CCN(C)CC1)C(=O)Nc1ccc(-c2ccc(-c3nc4ccccc4[nH]3)s2)cc1 (stereo not drawn)	638 nM
Fc1ccc2[nH]c(-c3cccc(-c4ccc(CN5CCN(c6ccncc6)CC5)cc4)c3)nc2c1	211 nM
O=C(NCC1CC1)C1CCN(C(c2ccc(Cl)cc2)c2ccc(Cl)cc2)CC1	190 nM
COc1ccccc1CCNc1nc(C)cc(N[C@@H](Cc2ccccc2)C(=O)Nc2ccccc2)n1	1020 nM
Cn1cncc1C(=O)Nc1ccc(-c2cccc(-c3nc4cc(F)ccc4[nH]3)c2)cc1	818 nM
Nc1ncnc2nc(-c3ccc(F)cc3)cc(-c3ccc(NC(=O)c4ccccc4)cc3)c12	640 nM
CCN(CCCN1CCCCC1)c1cc(C)nc(Nc2cccc(OC(F)(F)F)c2)n1	229 nM
Cc1ccc2[nH]c(-c3ccccc3)cc(=NN=Cc3cccnc3)c2c1	691 nM
CCOC(=O)C(=CNc1ccc(Cc2cnc(N)nc2N)cc1CC)C(=O)OCC	1140 nM
CCc1c[nH]c2c(N3CCCC3=O)cc(C(=O)N[C@@H](Cc3ccccc3)[C@H](O)CNC(C)(C)CCCC(C)C)cc12	511 nM
O=C(Nc1cc(Cl)ccc1-n1cncn1)C1(c2ccccc2)CC1	455 nM
Cc1ccc(NC(=O)N2CCCN(CCCCCNC(=O)/C=C/c3ccc(Cl)c(Cl)c3)CC2)cc1C	773 nM
CCn1c(-c2nonc2N)nc2c(-c3cccc(NC(=O)Nc4ccc5c(c4)CCC5)c3)ncc(OCCCN)c21	783 nM
CC(c1cccc(Nc2nccc(-c3c(-c4cccc(NC(=O)c5c(F)cccc5F)c4)nn4ncccc34)n2)c1)S(C)(=O)=O (stereo not drawn)	45.6 nM
CCOC(=O)c1ccc(-c2cnc(N)c(-c3nc4cccc(C)c4[nH]3)c2)cc1	281 nM
COc1cc(Cc2cnc(N)nc2N)cc(OCCCCCC(N)=O)c1OC	1190 nM
O=S(=O)(Nc1cccc(CCN2CCC(N3CCCCC3)CC2)c1)c1cccc2cccnc12	851 nM
COc1ccccc1CNC(=O)CCn1c(=O)[nH]c2ccsc2c1=O	1040 nM
CCc1cc2c(cc1CC)CC(NC[C@@H](O)c1ccc(O)c3[nH]c(=O)ccc13)C2	1120 nM
CC(C)(C)C1CCC(CC2=C(C(=O)O)c3ccccc3C2=O)CC1 (stereo not drawn)	1100 nM
O=C(Nc1cccc(-c2ccc(-c3nc4cc(F)ccc4[nH]3)s2)c1)c1cccnc1	608 nM
O=C(Nc1ccc(Cl)c(Cl)c1)Nc1ccccc1N1CCNCC1	709 nM
COc1ccc(CCNC(C)Cc2ccc(C(=O)Nc3ccc(CC(C)NCCc4cccc(Cl)c4)cc3)cc2)cc1 (stereo not drawn)	248 nM
